Assay [1] addresses T1, LbSOD (Leishmania braziliensis iron superoxide dismutase, FeSOD).
T1 construct: recombinant from pETM11-LbSOD, 6xHis-tag removed by TEV protease (23 kDa)
Nature of the assay: Kd from concentration-response (FITC-labeled protein fluorescence / thermal shift). In kind it is binding.

Assay [2] shares this target. Nature of the assay: Kd from concentration-response (FITC-labeled protein fluorescence / thermal shift); binding confirmed by ITC. For orientation: Isothermal titration calorimetry measures the heat released or taken up as one component is titrated into another.

Structures are written as SMILES.

These results are taken from publication PMC6327998, “Synthesis and biological evaluation of thiazole derivatives as LbSOD inhibitors” (Journal of Enzyme Inhibition and Medicinal Chemistry, 2018).

The Kd is the concentration at which binding is half-saturated. For `COc1cccc(C=Nc2nc(-c3ccc(Br)cc3)cs2)c1` [Ju-514, N-(3-methoxybenzylidene)-4–(4-bromophenyl)thiazol-2-imine], the Kd in assay [1] stood at 6.1 ± 0.8 mM.

As to `O=[N+]([O-])c1ccc(-c2csc(N=Cc3ccc(Br)c(Br)c3)n2)cc1` [Ju-480, N-(3,4-dibromobenzylidene)-4–(4-nitrophenyl)thiazol-2-imine], the Kd in assay [2] is 0.0048 ± 0.0125 mM.
